In ChEMBL document CHEMBL4507291 (2021):

Legend:
[1] = biological target: Cannabinoid receptor 1 (Homo sapiens) (UniProt P21554); settings: Compound concentration 10.0 uM
[2] = biological target: T1, Tyrosine-protein kinase ITK/TSK (Homo sapiens) (UniProt Q08881); experiment: ITK Kinase screen; settings: Compound concentration 1.0 uM
T1 sequence (whole entry): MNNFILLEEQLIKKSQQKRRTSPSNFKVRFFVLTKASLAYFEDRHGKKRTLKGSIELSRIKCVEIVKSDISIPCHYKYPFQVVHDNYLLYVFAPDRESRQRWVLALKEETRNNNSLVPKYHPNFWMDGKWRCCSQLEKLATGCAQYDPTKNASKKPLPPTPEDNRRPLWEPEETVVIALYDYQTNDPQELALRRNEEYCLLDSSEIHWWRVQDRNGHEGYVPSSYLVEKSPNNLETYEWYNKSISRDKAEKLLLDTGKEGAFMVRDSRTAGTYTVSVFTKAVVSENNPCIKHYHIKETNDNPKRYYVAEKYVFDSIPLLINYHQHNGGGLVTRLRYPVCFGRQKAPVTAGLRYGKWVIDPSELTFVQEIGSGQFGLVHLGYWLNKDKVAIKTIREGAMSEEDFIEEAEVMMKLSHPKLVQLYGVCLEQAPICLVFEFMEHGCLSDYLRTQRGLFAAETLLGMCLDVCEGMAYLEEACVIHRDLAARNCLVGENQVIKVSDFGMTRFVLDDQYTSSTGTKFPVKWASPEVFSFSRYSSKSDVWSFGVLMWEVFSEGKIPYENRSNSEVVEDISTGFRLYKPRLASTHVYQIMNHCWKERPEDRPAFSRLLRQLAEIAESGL

[3] = biological target: CDK9/cyclin T1 (Homo sapiens) (UniProt O60563+P50750); experiment: CDK9/cyclin T1 Kinase screen; type: protein-complex assay; settings: Compound concentration 1.0 uM
[4] = biological target: Ribosomal protein S6 kinase beta-1 (Homo sapiens) (UniProt P23443); experiment: RPS6KB1 (p70S6K) Kinase screen; settings: Compound concentration 1.0 uM
Ribosomal protein S6 kinase beta-1 (Homo sapiens), sequence (P23443 whole entry, looked up): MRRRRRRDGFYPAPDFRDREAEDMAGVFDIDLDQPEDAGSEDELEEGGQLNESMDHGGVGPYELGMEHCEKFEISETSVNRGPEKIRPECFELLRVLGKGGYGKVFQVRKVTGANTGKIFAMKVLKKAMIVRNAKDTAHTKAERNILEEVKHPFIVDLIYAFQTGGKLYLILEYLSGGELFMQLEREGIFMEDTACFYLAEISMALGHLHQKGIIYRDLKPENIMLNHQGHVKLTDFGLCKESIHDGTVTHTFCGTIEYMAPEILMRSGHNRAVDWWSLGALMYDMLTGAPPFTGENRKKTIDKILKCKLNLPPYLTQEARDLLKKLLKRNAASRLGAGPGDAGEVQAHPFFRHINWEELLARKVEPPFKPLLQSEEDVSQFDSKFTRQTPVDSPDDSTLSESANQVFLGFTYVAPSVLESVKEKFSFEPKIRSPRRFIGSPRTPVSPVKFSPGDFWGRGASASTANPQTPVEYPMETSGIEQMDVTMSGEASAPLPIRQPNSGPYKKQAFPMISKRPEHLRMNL

[5] = biological target: Serine/threonine-protein kinase 25 (Homo sapiens) (UniProt O00506); experiment: STK25 (YSK1) Kinase screen; settings: Compound concentration 1.0 uM
Serine/threonine-protein kinase 25 (Homo sapiens), sequence (O00506 whole entry, looked up): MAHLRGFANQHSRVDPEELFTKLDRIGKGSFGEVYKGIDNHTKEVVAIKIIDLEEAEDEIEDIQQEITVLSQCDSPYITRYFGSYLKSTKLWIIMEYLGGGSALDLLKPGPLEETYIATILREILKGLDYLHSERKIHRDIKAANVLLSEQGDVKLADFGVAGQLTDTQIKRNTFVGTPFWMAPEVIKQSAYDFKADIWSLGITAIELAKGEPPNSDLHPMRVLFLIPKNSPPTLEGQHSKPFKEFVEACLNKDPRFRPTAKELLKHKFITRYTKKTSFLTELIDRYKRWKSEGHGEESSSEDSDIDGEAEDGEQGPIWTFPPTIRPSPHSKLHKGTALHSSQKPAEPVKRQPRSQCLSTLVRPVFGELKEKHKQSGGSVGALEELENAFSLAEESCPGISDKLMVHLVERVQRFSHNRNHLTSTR

[6] = biological target: T2, Inhibitor of nuclear factor kappa-B kinase subunit beta (Homo sapiens) (UniProt O14920); experiment: IKBKB (IKK beta) Kinase screen; settings: Compound concentration 1.0 uM
T2 sequence (whole entry): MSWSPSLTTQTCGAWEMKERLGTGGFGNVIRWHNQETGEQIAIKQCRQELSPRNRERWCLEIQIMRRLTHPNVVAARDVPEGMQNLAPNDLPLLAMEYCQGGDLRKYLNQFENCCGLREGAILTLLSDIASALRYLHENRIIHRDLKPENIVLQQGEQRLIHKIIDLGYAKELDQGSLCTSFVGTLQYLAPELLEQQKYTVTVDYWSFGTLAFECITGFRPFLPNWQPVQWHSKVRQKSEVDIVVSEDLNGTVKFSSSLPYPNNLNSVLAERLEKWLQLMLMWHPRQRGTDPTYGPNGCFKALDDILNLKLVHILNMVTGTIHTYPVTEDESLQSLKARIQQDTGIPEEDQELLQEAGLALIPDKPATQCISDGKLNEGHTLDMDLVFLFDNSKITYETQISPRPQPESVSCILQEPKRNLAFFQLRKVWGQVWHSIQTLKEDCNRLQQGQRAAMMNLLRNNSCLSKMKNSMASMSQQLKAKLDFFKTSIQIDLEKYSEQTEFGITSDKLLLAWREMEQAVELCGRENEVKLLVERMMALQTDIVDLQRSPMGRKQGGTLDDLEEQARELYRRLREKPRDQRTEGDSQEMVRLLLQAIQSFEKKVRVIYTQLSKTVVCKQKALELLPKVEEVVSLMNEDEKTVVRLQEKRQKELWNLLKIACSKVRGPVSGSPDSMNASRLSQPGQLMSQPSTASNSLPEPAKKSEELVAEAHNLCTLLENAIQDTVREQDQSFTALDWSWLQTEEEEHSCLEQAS

[7] = biological target: T3, Serine/threonine-protein kinase Chk1 (Homo sapiens) (UniProt O14757); experiment: CHEK1 (CHK1) Kinase screen; settings: Compound concentration 1.0 uM
T3 sequence (whole entry): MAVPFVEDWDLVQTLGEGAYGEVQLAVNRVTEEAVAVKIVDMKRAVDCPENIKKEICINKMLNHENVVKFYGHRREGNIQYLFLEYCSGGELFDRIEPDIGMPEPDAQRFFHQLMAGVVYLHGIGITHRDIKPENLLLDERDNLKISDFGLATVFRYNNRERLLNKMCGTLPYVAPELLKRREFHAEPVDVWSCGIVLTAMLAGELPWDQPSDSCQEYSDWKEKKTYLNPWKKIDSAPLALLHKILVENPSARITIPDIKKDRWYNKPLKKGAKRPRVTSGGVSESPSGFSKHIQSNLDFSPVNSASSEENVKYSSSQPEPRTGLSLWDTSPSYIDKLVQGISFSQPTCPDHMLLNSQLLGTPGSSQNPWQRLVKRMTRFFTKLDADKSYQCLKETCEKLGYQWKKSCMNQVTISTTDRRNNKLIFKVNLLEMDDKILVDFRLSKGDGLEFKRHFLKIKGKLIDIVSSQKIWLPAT

[8] = biological target: T4, Tyrosine-protein kinase receptor TYRO3 (Homo sapiens) (UniProt Q06418); experiment: TYRO3 (RSE) Kinase screen; settings: Compound concentration 1.0 uM
T4 sequence (whole entry): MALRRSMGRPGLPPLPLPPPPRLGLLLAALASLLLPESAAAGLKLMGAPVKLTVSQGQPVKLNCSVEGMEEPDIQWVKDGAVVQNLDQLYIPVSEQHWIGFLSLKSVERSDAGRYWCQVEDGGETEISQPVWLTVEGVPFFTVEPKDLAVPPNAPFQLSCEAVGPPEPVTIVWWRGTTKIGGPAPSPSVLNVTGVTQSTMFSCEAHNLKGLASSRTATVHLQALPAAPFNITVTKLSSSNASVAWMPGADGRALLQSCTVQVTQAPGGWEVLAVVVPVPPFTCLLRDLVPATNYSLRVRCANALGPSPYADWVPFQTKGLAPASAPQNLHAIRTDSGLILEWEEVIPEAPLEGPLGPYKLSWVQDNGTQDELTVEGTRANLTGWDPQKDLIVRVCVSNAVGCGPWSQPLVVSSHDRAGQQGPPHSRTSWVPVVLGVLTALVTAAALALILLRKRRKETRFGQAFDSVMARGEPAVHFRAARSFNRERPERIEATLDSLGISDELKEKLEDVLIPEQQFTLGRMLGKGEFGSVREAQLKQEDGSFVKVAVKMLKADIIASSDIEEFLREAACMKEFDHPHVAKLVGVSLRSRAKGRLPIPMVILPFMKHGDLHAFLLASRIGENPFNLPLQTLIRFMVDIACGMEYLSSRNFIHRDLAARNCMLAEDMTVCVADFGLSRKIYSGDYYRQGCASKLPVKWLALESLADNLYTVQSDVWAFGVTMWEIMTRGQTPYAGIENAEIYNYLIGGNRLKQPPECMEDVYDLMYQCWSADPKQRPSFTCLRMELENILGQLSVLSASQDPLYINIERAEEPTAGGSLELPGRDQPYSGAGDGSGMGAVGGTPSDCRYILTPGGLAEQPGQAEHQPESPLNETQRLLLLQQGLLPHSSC

[9] = system: Mast/stem cell growth factor receptor Kit (Homo sapiens), P10721 [V654A]; experiment: KIT V654A Kinase screen; settings: Compound concentration 1.0 uM
Mast/stem cell growth factor receptor Kit (Homo sapiens), P10721 [V654A], sequence (P10721 whole entry V654A): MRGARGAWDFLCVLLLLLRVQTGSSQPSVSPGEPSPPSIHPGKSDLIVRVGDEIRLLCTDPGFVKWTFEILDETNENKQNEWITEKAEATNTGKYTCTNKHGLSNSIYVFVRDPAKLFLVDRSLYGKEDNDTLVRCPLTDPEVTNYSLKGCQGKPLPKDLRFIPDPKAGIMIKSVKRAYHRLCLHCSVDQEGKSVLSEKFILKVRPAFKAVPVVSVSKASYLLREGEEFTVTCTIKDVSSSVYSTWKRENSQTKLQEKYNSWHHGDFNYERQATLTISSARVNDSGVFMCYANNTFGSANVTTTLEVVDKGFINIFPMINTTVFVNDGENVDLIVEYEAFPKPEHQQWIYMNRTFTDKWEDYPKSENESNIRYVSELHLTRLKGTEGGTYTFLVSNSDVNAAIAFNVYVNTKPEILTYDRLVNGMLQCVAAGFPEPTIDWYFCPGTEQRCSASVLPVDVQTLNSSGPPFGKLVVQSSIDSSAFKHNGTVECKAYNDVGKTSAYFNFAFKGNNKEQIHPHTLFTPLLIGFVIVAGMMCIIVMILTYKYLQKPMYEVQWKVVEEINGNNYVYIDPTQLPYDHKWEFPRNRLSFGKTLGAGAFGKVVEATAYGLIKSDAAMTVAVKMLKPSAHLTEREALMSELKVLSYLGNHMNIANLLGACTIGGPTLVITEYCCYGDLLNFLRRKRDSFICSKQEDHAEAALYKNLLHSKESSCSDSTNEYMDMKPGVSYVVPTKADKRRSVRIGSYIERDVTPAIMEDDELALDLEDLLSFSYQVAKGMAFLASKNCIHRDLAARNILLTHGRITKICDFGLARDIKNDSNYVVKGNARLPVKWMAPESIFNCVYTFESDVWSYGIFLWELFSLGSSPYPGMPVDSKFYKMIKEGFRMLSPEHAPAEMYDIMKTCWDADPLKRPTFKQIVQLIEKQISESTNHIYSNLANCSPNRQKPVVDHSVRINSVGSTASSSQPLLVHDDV

Measured: inhibition

Cannabinoid receptor 1 (Homo sapiens), sequence (P21554 whole entry): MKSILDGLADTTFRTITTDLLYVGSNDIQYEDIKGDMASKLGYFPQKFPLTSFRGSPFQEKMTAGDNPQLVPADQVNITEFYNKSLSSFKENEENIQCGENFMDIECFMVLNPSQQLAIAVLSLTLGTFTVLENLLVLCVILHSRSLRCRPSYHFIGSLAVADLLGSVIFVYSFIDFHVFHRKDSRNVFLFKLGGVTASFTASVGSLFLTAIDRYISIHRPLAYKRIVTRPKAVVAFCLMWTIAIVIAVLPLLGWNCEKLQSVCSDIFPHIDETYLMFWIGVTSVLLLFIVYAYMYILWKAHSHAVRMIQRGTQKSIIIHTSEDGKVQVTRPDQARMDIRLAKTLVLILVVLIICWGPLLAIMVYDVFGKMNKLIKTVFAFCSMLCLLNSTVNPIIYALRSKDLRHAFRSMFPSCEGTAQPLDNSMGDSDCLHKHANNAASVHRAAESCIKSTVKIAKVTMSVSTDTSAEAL

C[C@@H]1CN(c2cc(-c3n[nH]c4ccc(OC5(C)CC5)cc34)ncn2)C[C@H](C)O1 [MLi-2]
inactive: [1] 20% | [2] 2.04% | [3] 11.3% | [4] 5.26% | [5] 2.24% | [6] -0.0171% | [7] -0.226% | [8] 6.06% | [9] 1.06%
